Holding throughout (assay type): cell-based
Assay [1] relates to Calu-1 cells. The assay is described as follows: Anti-proliferation (viability) of NSCLC Calu-1 cells, 3 days (Table 7, FIG. 2B). The essentials:
(§1)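 Cells treated with heterobifunctional compounds in 10-point serial dilution, then viability measured; Calu-1 NSCLC cells exposed for 3 days, ER+ T47D breast cancer cells for 6 days.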

For assay [2], the system named is MCF7 cells. As to the kind of experiment: Cell viability / anti-proliferation assay, MCF7 (Table 7, FIG. 2B). As to conditions: 10-point serial dilution, 3-6 days. As to the method: (§2) NSCLC Calu-1 or ER+ breast cancer T47D cells were treated with selected heterobifunctional compounds following a 10-point serial dilution for 3 or 6 days, respectively.
(§3) Cells were treated with heterobifunctional compounds following a 10-point serial dilution for 3-6 days. In Calu-1 cells, A: anti-proliferation activity IC50≤10 nM; B: anti-proliferation activity IC50<50 nM, and ≥10 nM; C: anti-proliferation activity IC50≥50 nM. In T47D cells, A: anti-proliferation activity IC50≤50 nM; B: anti-proliferation activity IC50≤100 nM, and ≥50 nM; C: anti-proliferation activity IC50≥100 nM; -, data not available.
(§4) Calu-1, MCF7 or T47D cells were seeded in 96-well plates and treated with CPD-10, or CPD-143 following a 10-point serial dilution for 3-6 days (FIG. 2B).
(§5) Calu-1, T47D, MCF7, HCC1428 and other cells were cultured at 37° C. with 5% CO2 in RPMI 1640 or DMEM medium supplemented with 10% fetal bovine serum. […]
(§6) Cells were seeded at a density of 2,000-5,000 cells per well in 96-well assay plates and treated with test compounds following a 10-point serial dilution for 3-6 days. Cell viability was determined using the CellTiter-Lumi assay kit according to the manufacturer's instructions. The dose-response curves were determined and IC50 values were calculated using the GraphPad Prism software following a nonlinear regression (least squares fit) method. […]

Assay [3] has as its system CCND1, CCND3, CDK4 in T47D cells. The assay is described as follows: Immunoblot of CCND1, CCND3, CDK4 protein degradation in T47D cells (FIG. 2A, 48 hours). As to conditions: negative control vs CPD-10. The method, then: Specific exemplary heterobifunctional compounds were characterized in Calu-1, MCF7, T47D and other cells. Cells that express cyclin D1-3 and CDK4/6 proteins were treated with heterobifunctional compounds disclosed herein at indicated concentrations. MCF7 cells were deprived of serum for 2 hours followed by the treatment with heterobifunctional compounds. Cells were collected, lysed and subject to immunoblotting using an antibody specific to CCND1, CCND2, CCND3, CDK4, or FoxM1, cyclin A2, or phosphorylated Rb (S807/811) proteins. Tubulin or GAPDH was used as the loading control. DMSO treatment was used as the negative control.
To verify that heterobifunctional compound-mediated degradation is dependent on the binding to CDK4-cyclin D complex, a negative control compound, CPD-143, which is derived from active heterobifunctional compound CPD-10 was designed. CPD-143 bears the same DDB1 ligand and linker as CPD-10 but with a modified warhead to impair the binding of the control compound to CDK4.
In general terms: In western blotting, separated proteins are transferred to a membrane and probed.

The subject of assay [4] is Calu-1 cells. As to the kind of experiment: Cell viability / anti-proliferation assay, Calu-1 (Table 7, FIG. 2B). Conditions: 10-point serial dilution, 3-6 days. As to the method:
as §2, §3, §4, §5, §6

The subject of assay [5] is HCC1428 cells. The assay is described as follows: Annexin V apoptosis flow cytometry, HCC1428 (FIG. 3B). Conditions: HCC1428, dose approximating IC90, 6 days. The method, then:
(§7) T47D cells were treated with DMSO, palbociclib, heterobifunctional compound CPD-10 for 6 days at doses approximating IC50 and IC90 concentrations as indicated (FIG. 3A). HCC1428 cells were treated with DMSO, palbociclib, heterobifunctional compound CPD-10, or its negative control compound CPD-143 for 6 days at doses approximating IC90 concentrations as indicated (FIG. 3B). Cells were harvested by trypsinization, staining was carried out using the Annexin V Apoptosis Detection Kit.
Assays were performed on the CytoFLEX Cytometer (Beckman Coulter), and data were analyzed using CytExpert software. For cell death and apoptosis analysis, cells were harvested by trypsinization, staining was carried out using the Annexin V Apoptosis Detection Kit (BD Biosciences). Briefly, cells were resuspended in 1× binding buffer and incubated with fluorochrome-conjugated Annexin V and 7-AAD for 15 min in darkness at room temperature.
For orientation: In flow cytometry, cells or beads pass a laser one at a time.

For assay [6], the system named is T47D cells. The assay is described as follows: Downstream inhibition in T47D cells with CPD-10 and negative control CPD-143 (FIG. 2A). Conditions: 48 hours, dose range. As to the method:
(§8) T47D cells were treated with a dose range of heterobifunctional compound CPD-10, and its negative control compound CPD-143 for 48 hours (FIG. 2A).
(§9) Cultured cells were washed with cold PBS once and lysed in cold RIPA buffer supplemented with protease inhibitors and phosphatase inhibitors (Beyotime Biotechnology). The solutions were then incubated at 4 ? for 30 min with gentle agitation to fully lysed cells. Cell lysates were centrifuged at 13,000 rpm for 10 min at 4 ? and pellets were discarded. Total protein concentrations in the lysates were determined following BCA assays (Beyotime Biotechnology). Cell lysates were mixed with Laemmli loading buffer and heated at 99° C. for 5 min. Proteins were resolved on SDS-PAGE and visualized using Western ECL Substrate kits on a ChemiDoc MP Imaging system (Bio-Rad). Protein bands were quantitated using the Image Lab software provided by Bio-Rad.

Assay [7] deals with HCC1428 cells. As to the kind of experiment: Flow cytometric analysis of Annexin V/7-AAD stained HCC1428 cells (apoptosis), 6 days (FIG. 3B). As to conditions: HCC1428; 400 nM; 6 days. The method, then: as §7, with “IC50and” for “IC50 and”, “Kit. The percentages of early apoptotic (Annexin V^+7-AAD^−, lower right quadrant), late apoptotic (Annexin V^+7-AAD^+, upper right quadrant) and necrotic cells (Annexin V^−7-AAD^+, upper left quadrant) are indicated on dot plots.” for “Kit.”

The test system of assay [8] is T47D cells. As to the kind of experiment: Cell viability / anti-proliferation assay, T47D (Table 7, FIG. 2B). As to conditions: 10-point serial dilution, 3-6 days. The method, then: as §2, §3, §4, §5, §6
A further assay addresses CDK4 (Homo sapiens, UniProt P11802+Q16531). The assay is described as follows: CDK4 percentage degradation in Calu-1 cells (Table 6). On the set-up: Cells that express cyclin D1-3 and CDK4/6 proteins were treated with heterobifunctional compounds; endogenous in cells; host or cells: Calu-1. As to conditions: 16 hours. A digest of the protocol:
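Percentage degradation of Cyclin D1 and CDK4 derived from densitometry of ECL Western blots on lysates of Calu-1 cells. Treatment was 16 h with compound at either 40 nM or 200 nM.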

In assay [9] the test system is T47D cells. The assay is described as follows: Anti-proliferation (viability) of ER+ breast cancer T47D cells, 6 days (Table 7, FIG. 2B). A digest of the protocol:
as §1

For another assay, the system named is CCND. As to the kind of experiment: CCND degradation in T47D cells with CPD-10 and negative control CPD-143 (FIG. 2A). As to conditions: 48 hours, dose range. As to the method: as §8, §9
Assay [10] concerns MCF7 cells. The assay is described as follows: Anti-proliferation (viability) of MCF7 cells (Table 7, FIG. 2B).

Structures are written as SMILES. Some results are limits rather than exact numbers.

CDK4, sequence (P11802 2-303 limits assumed): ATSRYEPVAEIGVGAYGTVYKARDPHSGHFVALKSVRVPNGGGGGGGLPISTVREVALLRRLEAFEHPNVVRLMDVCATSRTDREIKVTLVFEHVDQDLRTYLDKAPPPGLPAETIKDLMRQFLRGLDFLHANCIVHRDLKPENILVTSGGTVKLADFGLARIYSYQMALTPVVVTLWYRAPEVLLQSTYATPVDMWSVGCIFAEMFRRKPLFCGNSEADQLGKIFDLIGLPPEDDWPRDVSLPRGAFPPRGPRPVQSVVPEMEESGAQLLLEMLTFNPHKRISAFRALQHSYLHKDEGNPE
CDK4, sequence (P24385 whole entry partner): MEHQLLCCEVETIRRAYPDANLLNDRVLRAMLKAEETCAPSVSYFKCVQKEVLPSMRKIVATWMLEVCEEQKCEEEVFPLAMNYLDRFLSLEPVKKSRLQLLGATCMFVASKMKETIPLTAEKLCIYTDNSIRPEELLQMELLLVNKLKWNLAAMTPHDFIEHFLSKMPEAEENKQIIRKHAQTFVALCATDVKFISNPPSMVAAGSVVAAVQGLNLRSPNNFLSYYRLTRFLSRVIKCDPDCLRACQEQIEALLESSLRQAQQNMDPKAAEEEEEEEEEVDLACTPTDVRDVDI
CDK4, sequence (Q16531 2-1140 limits assumed): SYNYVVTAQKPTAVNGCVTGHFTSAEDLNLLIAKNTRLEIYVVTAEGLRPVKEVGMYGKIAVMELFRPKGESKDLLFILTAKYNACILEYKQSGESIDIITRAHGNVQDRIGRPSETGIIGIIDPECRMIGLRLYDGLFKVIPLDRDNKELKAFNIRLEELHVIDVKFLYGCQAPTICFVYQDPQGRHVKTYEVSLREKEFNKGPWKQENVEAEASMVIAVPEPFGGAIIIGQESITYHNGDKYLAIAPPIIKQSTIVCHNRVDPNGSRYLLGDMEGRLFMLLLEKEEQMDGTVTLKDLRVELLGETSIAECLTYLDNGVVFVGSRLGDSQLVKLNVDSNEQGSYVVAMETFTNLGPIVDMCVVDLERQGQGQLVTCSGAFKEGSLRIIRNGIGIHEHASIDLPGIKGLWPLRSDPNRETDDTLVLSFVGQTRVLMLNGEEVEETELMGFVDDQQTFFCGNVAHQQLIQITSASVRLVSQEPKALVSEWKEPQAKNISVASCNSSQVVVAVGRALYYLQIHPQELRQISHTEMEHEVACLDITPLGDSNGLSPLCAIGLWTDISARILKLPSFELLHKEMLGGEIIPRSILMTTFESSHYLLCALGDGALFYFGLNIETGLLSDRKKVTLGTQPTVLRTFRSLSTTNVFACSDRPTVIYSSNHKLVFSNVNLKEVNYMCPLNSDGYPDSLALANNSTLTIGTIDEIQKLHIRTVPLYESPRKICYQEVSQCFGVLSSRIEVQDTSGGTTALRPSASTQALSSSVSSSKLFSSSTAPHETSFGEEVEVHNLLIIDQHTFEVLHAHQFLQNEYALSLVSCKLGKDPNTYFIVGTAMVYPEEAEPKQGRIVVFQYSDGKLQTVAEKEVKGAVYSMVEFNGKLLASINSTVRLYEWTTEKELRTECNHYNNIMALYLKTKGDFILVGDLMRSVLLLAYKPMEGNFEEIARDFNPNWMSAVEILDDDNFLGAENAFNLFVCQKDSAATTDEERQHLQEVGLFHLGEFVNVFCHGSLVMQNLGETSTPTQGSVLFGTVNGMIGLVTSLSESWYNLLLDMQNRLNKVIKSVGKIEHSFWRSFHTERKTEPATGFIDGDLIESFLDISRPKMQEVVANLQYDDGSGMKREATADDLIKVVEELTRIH

Consider `CNc1ccc(C(=O)Nc2ccc(N(C)C)nn2)c(NCCCCCCCNC(=O)CN2CCN(c3ccc(N(C)c4ncc5c(C)c(C(C)=O)c(=O)n(C6CCCC6)c5n4)nc3)CC2)n1` [CPD-143, 2-((7-(2-(4-(6-((6-acetyl-8-cyclopentyl-5-methyl-7-oxo-7,8-dihydropyrido[2,3-d]pyrimidin-2-yl)(methyl)amino)pyridin-3-yl)piperazin-1-yl)acetamido)heptyl)amino)-N-(6-(dimethylamino)pyridazin-3-yl)-6-(methylamino)nicotinamide], for which the “fold decrease in cellular anti-proliferation activity compared with CPD-10” value was > 50 -fold in the assay with Calu-1 cells [1] (Calu-1, negative control vs CPD-10, FIG. 2B); > 50 -fold in the assay with T47D cells [9] (T47D, negative control vs CPD-10, FIG. 2B); > 15 -fold in the assay with MCF7 cells [10] (MCF7, negative control vs CPD-10, FIG. 2B). Further, the 50% inhibitory concentration (IC50) – broadly, the point on the concentration scale where inhibition reaches its midpoint – in the assay on Calu-1 cells [1] (Homo sapiens, 72 h, Calu-1 cells, 3 days, 10-point serial dilution, read-out: GI IC50 in Calu-1) was not below 0.05 µM; in the assay on T47D cells [9] (Homo sapiens, 144 h, T47D cells, 6 days, 10-point serial dilution, read-out: GI IC50 in T47D), not below 0.1 µM; in the assay on MCF7 cells [10] (Homo sapiens, MCF7, MCF7 cells, 3-6 days, 10-point serial dilution, read-out: GI IC50 in MCF-7), more than 0.1 µM. Also, the “cell viability / anti-proliferation activity” value with MCF7 cells [2], in the assay on Calu-1 cells [4] and in the assay with T47D cells [8] was “much weaker cellular anti-proliferation activities” each time. The “fold decrease in DC50 (degradation potency) compared with CPD-10” value in assay [3] was > 100 -fold. Also, the cell apoptosis result in the assay with HCC1428 cells [5] is on record as “much less effect on cell apoptosis”. In addition, in the assay with T47D cells [6], the downstream inhibition potency result was “much weaker degradation potencies and downstream inhibition potencies”. For the same compound, the “Annexin V+ population” value in the assay with HCC1428 cells [7] was 11.8%. In addition, the inhibition – broadly, the share of the control response that was lost under treatment – at 0.04 µM at CDK4 (40 nM) was less than 30%. The inhibition at 0.2 µM on CDK4 (200 nM) fell in the range of 50 to 80%. Besides, the degradation potency result in the assay on CCND was “much weaker degradation potencies”.
